Article PMC10892818, “An Antiherpesviral Host-Directed Strategy Based on CDK7 Covalently Binding Drugs: Target-Selective, Picomolar-Dose, Cross-Virus Reactivity” (Pharmaceutics, 2024)
Where two headings read alike, the source gives them in different places.

Experiments:
[1] = test system: GCV- or MBV-resistant HCMV variants (ORF-UL97 mutants); assay: HCMV reporter-based antiviral assays, series of GCV- or MBV-resistant variants; format: cell-based, human cytomegalovirus
Protocol: For the infection experiments, stocks of the following recombinant, reporter protein-expressing viruses (GFP or YFP (i.e., green or yellow fluorescent protein, respectively)) were propagated (in permissive cells), determined in their infectious titers performing the respective reporter assays, stored by aliquots at −80 °C, and used for the assessment of antiviral drug activities: human cytomegalovirus HCMV AD169-GFP (HFFs); murine cytomegalovirus MCMV C3X-GFP (MEFs); guinea pig cytomegalovirus GPCMV v403-GFP (GPEFs); human herpesvirus type 6A HHV-6A U1102-GFP (J-Jhan); herpes simplex virus type 1 HSV-1 166v VP22-GFP (HFFs); varicella zoster virus VZV Oka-GFP (HFFs); Epstein-Barr virus EBV Akata-GFP (Akata-BX1-GFP carrier cells; kindly provided by Lindsey Hutt-Fletcher and Rona Scott, Dept. Microbiol. […]
Due to the fact that the HCMV-encoded protein kinase pUL97 represents a functional and structural ortholog of the host CDKs (vCDK/pUL97), the viral mutants of ORF-UL97 were assessed for sensitivity against CDK7 inhibitors. […] These HCMVs (i.e., UL97 mutants C592G, H520Q (GCV-res.) L397R (MBV-res.) M460I, T409M, H411Y, C480F, F432S, C603W (GCV- and MBV-double res.), and H469V (not determined yet)) were used for comparative analysis in HCMV reporter-based antiviral assays.

[2] = test system: HCMV UL97-H469V; design: method as in PMID 31940472; key: R-high, high-level drug resistance; R-int, intermediate-level drug resistance; R-low, low-level drug resistance; S, drug sensitivity; conditions: cited from earlier work
[3] = test system: HCMV UL97-T409M; design: method as in PMID 31940472; key: R-high, high-level drug resistance; R-int, intermediate-level drug resistance; R-low, low-level drug resistance; S, drug sensitivity; conditions: cited from earlier work
[4] = test system: VZV Oka-GFP; assay: microbe, parasite or virus in culture; format: cell-based, varicella zoster virus; conditions: for EC50: Human alphaherpesvirus 3, 96 h
Source text: (§1) The virus recombinants VZV Oka-GFP and rKSHV.219-GFP/RFP were used for the infection of HFFs (virus stock VZV Oka-GFP applied as a cell-bound inoculum as described before) or were continuously passaged in iSLK.219 carrier cells, respectively (Figure 1). The conditions of the GFP/RFP-based assays were adapted to both the 96 well (Figure 1A,B) and 12 well formats, and details including the assessment of antiviral reference drugs are given (Figure 1C,D).
(§2) The virus recombinants VZV Oka-GFP and rKSHV.219-GFP/RFP were used for the infection of HFFs (VZV) or were continuously passaged in iSLK.219 carrier cells (KSHV), respectively, and cell viability was determined by NRA performed with uninfected HFFs or uninduced iSLK.219 cells, respectively. (A,B) Schematic depiction of the assay systems performed in a 96 well plate format. […] For the VZV-GFP system, virus stock VZV Oka-GFP was applied as a cell-bound infectious inoculum. After a 90 min period of inoculum adsorption to the cell surfaces, antiviral compounds were added to the culture media at serial dilutions (DMSO served as a solvent control for drug treatment of infected cells, while mock-infected cells served as a negative control). For the KSHV-GFP/RFP system, iSLK.219 cell lytic replication of KSHV (RFP reporter signal) was induced by the addition of 0.05 or 0.5 µg/mL doxycycline (dox) to the culture media. Cultivated dox-induced iSLK.219 cells were treated with antiviral compounds added at serial dilutions (DMSO served as a positive infection solvent control, while dox-untreated mock cells served as a negative control). HFFs or iSLK.219 cells were harvested at 4 d p.i. or 1 d after treatment, respectively, fixed by a 10 min incubation with 10% formalin, washed with PBS, and used for quantitation of the GFP or RFP reporter signal by PicoMD counting (ImageXpress® Pico device, Molecular Devices LLC, San Jose, CA, USA), with data evaluation using CellReporterXpress® software (version 2.9.3.1183, Molecular Devices LLC) as described earlier in [63]. (C) The antiviral activity of the reference drugs was determined with the VZV-GFP system in the 96 well format. EC50 values refer to measurements in quadruplicate, and the mean values ± SD of two experimental replicates are given. (D) The antiviral activity of the reference drugs was determined with the KSHV-GFP/RFP system in the 96 well format. EC50 values refer to measurements in triplicate, and the mean values ± SD are given for each of the two depicted experimental replicates.

[5] = test system: HCMV UL97-L397R; design: method as in PMID 31940472; key: R-high, high-level drug resistance; R-int, intermediate-level drug resistance; R-low, low-level drug resistance; S, drug sensitivity; conditions: cited from earlier work
[6] = Neutral Red uptake assay (NRA), iSLK.219 cells; format: cell-based; conditions: human, read-out: CC50 (KSHV-GFP/RFP system)
Protocol: as §2

[7] = test system: rKSHV.219-GFP/RFP; assay: KSHV-GFP/RFP reporter assay in iSLK.219 cells; format: cell-based, Kaposi’s sarcoma-associated herpesvirus
Source text: as §1, §2

[8] = read-out: VZV EC50 (first experimental replicate)
[9] = read-out: VZV EC50 (second experimental replicate)

SMILES	drug resistance / sensitivity of the GCV- and MBV-resistant HCMVs [1]	Reported phenotype UL97-H469V [2]	Reported phenotype UL97-T409M [3]	SI (VZV-GFP system) ([4]; 96 well format)	EC50 [4, 8]	EC50 [4, 9]	Reported phenotype UL97-L397R [5]	CC50 ([6]; marked 0.05 μg/mL dox)	CC50 ([6]; marked 0.5 μg/mL dox)	EC50 ([7]; Human gammaherpesvirus 8, read-out: KSHV EC50, iSLK.219, 96 well, induced with 0.05 μg/mL dox)	EC50 ([7]; Human gammaherpesvirus 8, read-out: KSHV EC50, iSLK.219, 96 well, induced with 0.5 μg/mL dox)
Nc1ccn(C[C@@H](CO)OCP(=O)(O)O)c(=O)n1 [CDV, cidofovir]	all viruses showed sensitivity	nd | nd | S	S	> 323	0.3 ± 0.1 µM	0.3 ± 0.2 µM	S				
Nc1nc(O)c2ncn(COC(CO)CO)c2n1 [GCV, ganciclovir]			R-low		1 ± 0.8 µM	2.9 ± 2.7 µM	S	> 100 µM	> 100 µM	0.2 ± 0.1 µM	0.2 µM
